Data from patent publication US20230390401A1, “RAPIDLY RELEASED BIOORTHOGONAL CAGING GROUPS” (University of Utah Research Foundation, priority 2018, published 2023).
Like-named read-outs stand apart in the source and are kept apart here.

Experiments:
[1] = Fluorophore release (β-elimination) in diluted human serum; settings: T=37° C., PBS:serum (1:1)
Method: (§1) Fitting the disappearance of PEG-DPTz (c=0.2 mM) absorbance in the presence of excess ICPr-O-NA or ICPrc-NH-NA (c=2 mM;T=37° C., PBS:DMSO (9:1)) to a pseudo-first order rate equation provided the bimolecular rate constants k2(ICPr-O-NA)=4.0±0.2 M^−1s^−1 and k2(ICPrc-NH-NA)=1.1±0.2 M^−1s^−1, respectively. Release of the fluorophores in PBS from the postulated 3-oxopropyl intermediate was delayed relative to the reaction of the ICPr/ICPrc-groups with PEG-DPTz (k1,elim(HO-NA)=1.6×10^−4 s^−1; k1,elim(H2N-NA)=5.00×10^−5 s^−1; FIG. 4B, right column) in agreement with studies of cargo release from such groups. The aldehyde intermediate was detectable by NMR in DMSO-d6:D2O (9:1). To our delight, fluorophore release in diluted human serum (T=37° C., PBS:serum (1:1)) reached completion in few minutes because serum albumin can catalyze the β-elimination reaction.

[2] = Stability in serum in the absence of Tz; type: in vitro ADME, human
[3] = Kinetics of Tz-induced release from ICPr/ICPrc groups in PBS:DMSO; settings: for bimolecular rate constant k2: PEG-DPTz c=0.2 mM, excess probe c=2 mM, T=37° C., PBS:DMSO (9:1), pseudo-first order fit; for k1,elim, release of fluorophore from 3-oxopropyl intermediate: in PBS, after reaction with PEG-DPTz
Method: as §1

zebrafish embryos [4] = assay: In vivo uncaging of resorufin fluorescence in zebrafish embryos implanted with Tz-PS beads; settings: c=10 μM, t=8 h, Tz-PS implanted into yolk sacs
A549 lung cancer cells = assay: Cytotoxicity assay (CellTiter-Glo 2.0 viability)
Method: A549 lung cancer cells (ATCC, USA) were maintained in a humidified CO2 (5%) incubator at 37° C. in RPMI (Thermo Fisher, USA) supplemented with 10% fetal bovine serum in the presence of 1% Penicillin-Streptomycin-Glutamine (Thermo Fisher, USA) and 0.2% Normocin (InvivoGen, USA).
The cells were plated in 96-well TC treated plates (PerkinElmer, USA) at a 6,000 cells/well density 24 h prior to the addition of the drugs. All drugs, prodrugs and PEG-DPTz in DMSO stock solution were serially diluted in pre-warmed culture medium at 37° C. For samples assessing the reaction-induced drug release, prodrugs were added to the cells first (100 μL final volume per well) in a series of final concentrations ranging from 0.005 to 10 μM followed by addition of PEG-DPTz (20, 40 and 80 μM).
After 72 h incubation at 37° C., cell proliferation was assessed by a CellTiter-Glo©2.0 viability assay according to the manufacturer's instructions. After 15 min incubation at 25° C., the medium was gently measured with Envision 2104 Multilabel Reader (PerkinElmer, USA) to get the luminescent based on quantitation of the ATP present, an indicator of metabolically active cells. The proliferation assay was performed in quadruplet measurements (n=4). EC50 values were derived from the normalized cell growth and Growth/Sigmoidal formula were fitted and generated with Origin 8.0. […] The results are expressed as the mean±standard deviation (n=4).

zebrafish embryos [5] = settings: medium c=0, 1, 10 μM, t=8 h
Method: Zebrafish embryos were used as a model organism to evaluate the activity of uncaged payload molecules in vivo. […] For the fluorescence study, Tz-PSs were implanted into the yolk sacs of zebrafish embryos followed by incubation with ICPr-rsf (c=10 μM). […] Mexiletine is a voltage-gated sodium channel blocker known to induce cardiac arrhythmia, and which has been reported to decrease heart rate.
UV-VIS photospectrometic kinetic measurements were performed on a microplate reader SpectramaX M5 (Molecular Device, USA) in 96-well plates or 1 mL quartz cuvette. Cell proliferation assays were performed on an Envision 2104 Multilabel Reader (PerkinElmer, USA). Zebrafish Imaging and Efficiency Test (Heart Rate Reduction) were performed with Zeiss SteREO Discovery.V8 microscope (Zeiss, Jena, Germany) fitted with a PentaFluor S 120 vertical illuminator and coupled with an Xcite Series 120PC light source.

[6] = read-out: EC50 cytotoxicity, prodrug combined with PEG-DPTz, A549 cells, prodrug + excess PEG-DPTz (c=80 μM), 72 h

[C-]#[N+]CCCOc1ccc2c3c(cccc13)C(=O)N(CCOCCOCCOCCOC)C2=O [ICPr-O-NA, N-(methyl-PEG4)-4-(3-isocyanopropyl-1-oxy)-1,8-naphthalimide]
apparent first-order rate constant k1,elim in serum [1]: 0.0042 s⁻¹ | stability in serum [2]: completely stable in serum for at least three days | bimolecular rate constant k2 [3]: 4.0 ± 0.2 M⁻¹ s⁻¹

N-(methyl-PEG4)-4-(3-isocyanopropyl-carbamoyl)amino-1,8-naphthalimide [ICPrc-NH-NA]
stability in serum [2]: completely stable in serum for at least three days

[C-]#[N+]CCCOc1ccc2nc3ccc(=O)cc-3oc2c1 [ICPr-rsf, 3-isocyanopropyl resorufin ether]
fluorescence staining, fish with Tz-PS versus controls with unmodified beads (zebrafish embryos [4]): 5.2 fold

COCCOCCOCCOCCN1C(=O)c2cccc3c(N)ccc(c23)C1=O [Structure H2N-NA, N-(methyl-PEG4)-4-amino-1,8-naphthalimide]
k1,elim, release of fluorophore from 3-oxopropyl intermediate [3]: 5e-05 s⁻¹

[C-]#[N+]CCCOC(=O)Nc1ccc2c3c(cccc13)C(=O)N(CCOCCOCCOCCOC)C2=O [ICPrc-NH-NA]
apparent first-order rate constant k1,elim in serum [1]: 0.0016 s⁻¹ | bimolecular rate constant k2 [3]: 1.1 ± 0.2 M⁻¹ s⁻¹

[C-]#[N+]CCCOC(=O)N1C2CN3C4=C(C(=O)C(N)=C(C)C4=O)C(COC(N)=O)C3(OC)C21 (centres unmarked) [ICPrc-mmC, N-(3-isocyanopropyl-1-carbamoyl)Mitomycin C]
EC50 (A549 lung cancer cells; [6]): 244 ± 17 nM

[C-]#[N+]CCCOC(=O)NC1CC(OC2CC(O)(C(=O)CO)Cc3c(O)c4c(c(O)c32)C(=O)c2c(OC)cccc2C4=O)OC(C)C1O (centres unmarked) [ICPrc-dox, N-(3-isocyanopropyl-1-carbamoyl)doxorubicin]
EC50 (A549 lung cancer cells; [6]): 165 ± 35 nM

[C-]#[N+]CCCOC(=O)NC(C)COc1c(C)cccc1C (centres unmarked) [ICPrc-mex, N-(3-isocyanopropyl-1-carbamoyl)mexiletine]
heart rate in control fish bearing unmodified beads (zebrafish embryos [5]): no changes were observed | heart rate in fish with implanted Tz-PS (zebrafish embryos [5]; normalized to heart rate at t=0 h): dose-dependent decrease in heart rate

COc1cccc2c1C(=O)c1c(O)c3c(c(O)c1C2=O)C[C@@](O)(C(=O)CO)C[C@@H]3O[C@H]1C[C@H](N)[C@H](O)[C@H](C)O1 [dox, doxorubicin, reference compound]
EC50 (A549 lung cancer cells; Homo sapiens, A549, 72 h, read-out: EC50 cytotoxicity, free drug): 144 ± 28 nM

COCCOCCOCCOCCN1C(=O)c2cccc3c(O)ccc(c23)C1=O [HO-NA, N-(methyl-PEG4)-4-hydroxy-1,8-naphthalimide]
k1,elim, release of fluorophore from 3-oxopropyl intermediate [3]: 0.00016 s⁻¹
